Data taken from ChEMBL document CHEMBL1201862, “PubChem BioAssay data set” (2004).
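Grown in 96-well plates, cells were treated for 48 hours with each compound at five concentrations. Insufficient inhibition: endpoint recorded as highest concentration tested. GI50 is the concentration that inhibits growth by half.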 Calls of active or inactive are those of the source. No stated cut-off is given here; in the data, active = GI50 up to about 1.1 µM and inactive = higher.

What was measured:
Experiment in all cases: DTP human tumour cell line panel, 48 h
HL-60 = system: HL-60
HT-29 = system: HT-29
K562 = system: K562
KM-20L2 = system: KM-20L2
LOX IMVI = system: LOX IMVI
LXFL 529 = system: LXFL 529
NCI-H226 = system: NCI-H226
NCI-H460 = system: NCI-H460
OVCAR-3 = system: OVCAR-3
RPMI-8226 = system: RPMI-8226
SF-268 = system: SF-268
SNB-19 = system: SNB-19
TK-10 = system: TK-10
U-251 = system: U-251
UACC-257 = system: UACC-257
UACC-62 = system: UACC-62
XF498 = system: XF498
SK-MEL-2 = system: SK-MEL-2

SMILES | GI50 (HL-60) | GI50 (HT-29) | GI50 (K562) | GI50 (KM-20L2) | GI50 (LOX IMVI) | GI50 (LXFL 529) | GI50 (NCI-H226) | GI50 (NCI-H460) | GI50 (OVCAR-3) | GI50 (RPMI-8226) | GI50 (SF-268) | GI50 (SNB-19) | GI50 (TK-10) | GI50 (U-251) | GI50 (UACC-257) | GI50 (UACC-62) | GI50 (XF498) | GI50 (SK-MEL-2)
COc1ccccc1CCc1cc(OC)c(OC)c(OC)c1 | 11 µM (inactive) | 41.5 µM (inactive) | 33 µM (inactive) | 55.8 µM (inactive) | 40.3 µM (inactive) | 28.4 µM (inactive) | 39.8 µM (inactive) | 44.1 µM (inactive) | 41.3 µM (inactive) | 20.2 µM (inactive) | 65.9 µM (inactive) | 75.9 µM (inactive) | 76.7 µM (inactive) | 40.4 µM (inactive) | 45 µM (inactive) | 65 µM (inactive) | 35.9 µM (inactive) | 
CC(=O)CN(Cc1cc(C)c2c(c1)c1ccccc1n2Cc1ccccc1)S(=O)(=O)c1ccc(C)cc1 | > 100 µM (inactive) | > 100 µM (inactive) | > 100 µM (inactive) |  |  | > 100 µM (inactive) | > 100 µM (inactive) |  | > 100 µM (inactive) | > 100 µM (inactive) | > 100 µM (inactive) | > 100 µM (inactive) | > 100 µM (inactive) |  | > 100 µM (inactive) | > 100 µM (inactive) | > 100 µM (inactive) | > 100 µM (inactive)
COCCOCOc1ccc(OCOCCOC)c2c1C(=O)c1ccccc1C2=O | 18.4 µM (inactive) | 37.2 µM (inactive) | 24.7 µM (inactive) | 32 µM (inactive) | 27.9 µM (inactive) |  | 90.2 µM (inactive) | 24.3 µM (inactive) | 36.9 µM (inactive) |  | 31.3 µM (inactive) | > 87.9 µM (inactive) | > 73.6 µM (inactive) | 41.9 µM (inactive) | 42.8 µM (inactive) | 47.6 µM (inactive) | > 100 µM (inactive) | > 74.1 µM (inactive)
CC(=O)Nc1ccc(/C=C(\NC(=O)c2ccccc2)c2nc3ccc4c(c3[nH]2)C(=O)c2ccccc2C4=O)cc1 |  | 45.6 µM (inactive) | 19.9 µM (inactive) | 46.5 µM (inactive) | 15.1 µM (inactive) | 28.8 µM (inactive) | > 100 µM (inactive) |  | 12.4 µM (inactive) | 4.46 µM (inactive) | 5.94 µM (inactive) | 35.2 µM (inactive) | 17.5 µM (inactive) | 16.4 µM (inactive) | > 100 µM (inactive) | 17.9 µM (inactive) | 84.1 µM (inactive) | 48.8 µM (inactive)
N#Cc1c(-c2ccccc2)cc(-c2cccs2)c(C#N)c1N | > 100 µM (inactive) | > 100 µM (inactive) | > 100 µM (inactive) | > 100 µM (inactive) | > 100 µM (inactive) | > 100 µM (inactive) |  | > 100 µM (inactive) | > 100 µM (inactive) | > 100 µM (inactive) | > 100 µM (inactive) | > 100 µM (inactive) | > 100 µM (inactive) | > 100 µM (inactive) | > 100 µM (inactive) | > 10 µM (inactive) | > 100 µM (inactive) | 
COC(=O)CCC(=O)N1C/C(=C\c2ccccc2)C(=O)/C(=C/c2ccccc2)C1 |  | 1.72 µM (inactive) | 1.43 µM (inactive) | 2.24 µM (inactive) | 0.447 µM (active) | 2.09 µM (inactive) | 3.41 µM (inactive) | 2.43 µM (inactive) | 2.31 µM (inactive) | 0.416 µM (active) | 2.28 µM (inactive) | 3.82 µM (inactive) | 4.41 µM (inactive) | 1.24 µM (inactive) | 1.89 µM (inactive) | 2.11 µM (inactive) | 5.87 µM (inactive) | 
